#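 Five concentrations, 48 hours, 96-well plates. Definition used: TGI = concentration required for complete inhibition of growth.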 Where a SMILES comes first, the peptide text is derived from it. The star is where a group is joined. Boc = CC(C)(C)OC(=O)*
# What was measured:
# Test in all cases: NCI tumour cell line growth inhibition, 48 h
# CCRF-CEM leukemia = tested on: CCRF-CEM leukemia
# EKVX NSCLC = tested on: EKVX NSCLC
# HCT-15 colon = tested on: HCT-15 colon
# HT29 colon = tested on: HT29 colon
# IGROV1 ovarian = tested on: IGROV1 ovarian
# OVCAR-3 ovarian = tested on: OVCAR-3 ovarian
# OVCAR-5 ovarian = tested on: OVCAR-5 ovarian
# OVCAR-8 ovarian = tested on: OVCAR-8 ovarian
# RPMI-8226 leukemia = tested on: RPMI-8226 leukemia
# RXF 393 renal = tested on: RXF 393 renal
# SF-268 CNS = tested on: SF-268 CNS
# SF-295 CNS = tested on: SF-295 CNS
# SF-539 CNS = tested on: SF-539 CNS
# SK-MEL-2 melanoma = tested on: SK-MEL-2 melanoma
# SK-MEL-28 melanoma = tested on: SK-MEL-28 melanoma
# SN12C renal = tested on: SN12C renal
# SNB-75 CNS = tested on: SNB-75 CNS
# SW-620 colon = tested on: SW-620 colon
# TK-10 renal = tested on: TK-10 renal
Compound,TGI (CCRF-CEM leukemia),TGI (EKVX NSCLC),TGI (HCT-15 colon),TGI (HT29 colon),TGI (IGROV1 ovarian),TGI (OVCAR-3 ovarian),TGI (OVCAR-5 ovarian),TGI (OVCAR-8 ovarian),TGI (RPMI-8226 leukemia),TGI (RXF 393 renal),TGI (SF-268 CNS),TGI (SF-295 CNS),TGI (SF-539 CNS),TGI (SK-MEL-2 melanoma),TGI (SK-MEL-28 melanoma),TGI (SN12C renal),TGI (SNB-75 CNS),TGI (SW-620 colon),TGI (TK-10 renal)
FC(F)(F)C1(C(F)(F)F)C2CCC3(CC(F)(F)C(F)(F)S3)C1C2 (configuration not stated),60.9 µM,96.6 µM,> 100 µM,> 100 µM,> 100 µM,35.9 µM,> 100 µM,> 100 µM,58.8 µM,84.3 µM,> 100 µM,> 100 µM,> 100 µM,49.1 µM,> 100 µM,> 100 µM,> 100 µM,> 100 µM,> 100 µM
COC(=O)c1ccc(NCc2cc(O)ccc2O)cc1O,,27 µM,26.5 µM,34.4 µM,27.8 µM,15.2 µM,31 µM,19.8 µM,4.93 µM,21.6 µM,21.8 µM,27.2 µM,6.31 µM,37.4 µM,30 µM,29.1 µM,22 µM,19.9 µM,33.2 µM
CC1(C)O[C@@H](CP(c2ccccc2)c2ccccc2)[C@H](CP(c2ccccc2)c2ccccc2)O1,> 100 µM,29.4 µM,44.5 µM,47.7 µM,16.5 µM,33.6 µM,54.7 µM,20.5 µM,59.1 µM,26.9 µM,25.3 µM,57.7 µM,21.1 µM,,28 µM,18.7 µM,27.9 µM,38.3 µM,87 µM
CC(=O)O/C=C\OC1CCCC1,> 100 µM,> 100 µM,> 100 µM,> 100 µM,> 100 µM,> 100 µM,,> 100 µM,> 100 µM,> 100 µM,> 100 µM,> 100 µM,> 100 µM,> 100 µM,> 100 µM,,> 100 µM,> 100 µM,> 100 µM
C1=c2ccccc2=C2C(=C(c3ccccc3)C(c3ccccc3)=NN2c2ccccc2)S1,> 100 µM,> 100 µM,> 100 µM,> 100 µM,> 100 µM,,> 100 µM,> 100 µM,> 100 µM,> 100 µM,> 100 µM,> 100 µM,> 100 µM,> 100 µM,> 100 µM,> 100 µM,> 100 µM,> 100 µM,> 100 µM
Cc1cc(C)c2c(c1)C(=O)C1(C2)Cc2c(ccc(C)c2C)C1=O (configuration not stated),> 100 µM,> 100 µM,> 100 µM,,> 100 µM,> 100 µM,,> 100 µM,> 100 µM,> 100 µM,> 100 µM,> 100 µM,> 100 µM,> 100 µM,> 100 µM,> 100 µM,> 100 µM,> 100 µM,> 100 µM
CCOc1ccc(NC(=O)CCC(=O)NN)cc1,> 100 µM,> 100 µM,> 100 µM,> 100 µM,,> 100 µM,> 100 µM,> 100 µM,> 100 µM,> 100 µM,> 100 µM,> 100 µM,,> 100 µM,> 100 µM,> 100 µM,> 100 µM,> 100 µM,> 100 µM
COc1ccccc1OC(=O)/C=C/c1ccccc1,,> 100 µM,> 100 µM,> 100 µM,> 100 µM,> 100 µM,> 100 µM,> 100 µM,> 100 µM,> 100 µM,> 100 µM,> 100 µM,> 100 µM,> 100 µM,> 100 µM,> 100 µM,> 100 µM,> 100 µM,> 100 µM
Cn1c2c(cc(-c3ccccc3)c1=O)COc1ccccc1-2,57.5 µM,> 100 µM,> 100 µM,47.1 µM,> 100 µM,> 100 µM,54.1 µM,> 100 µM,42.1 µM,> 100 µM,> 100 µM,74.9 µM,> 100 µM,30.4 µM,84.6 µM,> 100 µM,> 100 µM,> 100 µM,
CO[C@H](c1ccccc1)[C@H](C)N(C)c1ccc2ccccc2c1C1=NC(C)(C)CO1,48.9 µM,44.2 µM,29.7 µM,25.1 µM,> 100 µM,30.7 µM,,26.7 µM,53.2 µM,27.6 µM,36.1 µM,30.8 µM,29.9 µM,29.7 µM,34 µM,33.2 µM,32.4 µM,33.4 µM,61.8 µM
CC1=NN(c2ccccc2)C(=O)C1=C1SCCCS1,39 µM,88.4 µM,> 100 µM,> 100 µM,> 100 µM,70.7 µM,> 100 µM,> 100 µM,46.1 µM,60.7 µM,> 100 µM,73.7 µM,,> 100 µM,> 100 µM,83.2 µM,> 100 µM,26.6 µM,> 100 µM
CCOC(=O)C(CC(C)C)NC(=O)C(Cc1ccccc1)NC(=O)CNC(=O)OC(C)(C)C (stereo not drawn) (Boc-Gly-Phe-Leu-OEt; configuration not given here),41.3 µM,54.1 µM,35.8 µM,32.4 µM,49 µM,34.4 µM,,46 µM,45.8 µM,49 µM,43.3 µM,78.5 µM,28.5 µM,99.4 µM,31.5 µM,35.4 µM,38.6 µM,39.9 µM,97.8 µM
CC(C)(C)C(=O)[CH-]C(=O)C(F)(F)C(F)(F)C(F)(F)F.CC(C)(C)C(=O)[CH-]C(=O)C(F)(F)C(F)(F)C(F)(F)F.[O-]CC1OC(O)C(O)C(O)C1O.[O-]CC1OC(O)C(O)C(O)C1O.[Ti+4],> 100 µM,> 100 µM,> 100 µM,> 100 µM,> 100 µM,> 100 µM,> 100 µM,> 100 µM,> 100 µM,> 100 µM,> 100 µM,> 100 µM,> 100 µM,> 100 µM,> 100 µM,> 100 µM,,> 100 µM,> 100 µM
